Measurements as given in patent US6358885B1, “Substituted phenylheterocyclic herbicides” (Mississippi State University, priority 1992, dated 2002).

Key:
lambsquarters = assay: Test B preemergence/postemergence greenhouse plant response rating 0 to 10; format: in vivo, Chenopodium album; conditions: 0 to 10 scale
Procedure, shortened: (§1)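 Test chemicals, dissolved in a non-phytotoxic solvent, were applied to soil at planting and, at the same time, over foliage of seedlings at the one to four leaf stage.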

purple nutsedge = assay: Test G preemergence/postemergence greenhouse plant response rating 0 to 100; format: in vivo, Cyperus rotundus; conditions: Rate 125 g/ha, 0 to 100 scale
Source text: (§2) Seeds, rhizomes, or plant parts of alfalfa (Medicago ativa), annual bluegrass (Poa annua), bermudagrass (Cynodon dactylon), broadleaf signalgrass (Brachiaria plantaginea), common purslane (Portulaca oleracea), common ragweed (Ambrosia elatior), […] (Paspalum dilatatum), goosegrass (Eleusine indica), guineagrass (Panicum maximum), […] exaltata), johnsongrass (Sorghum halepense), large crabgrass (Digitaria sanguinalis), peanut (Arachis hypoagaea), pitted morningglory (Ipomoea lacunosa), purple nutsedge (Cyperus rotundus), sandbur (Cenchrus echinatus), smooth crabgrass (Digitaria ischaemum) and yellow nutsedge (Cyperus esculentus) were planted into greenhouse pots containing greenhouse planting medium. Each pot contained only one plant species. The test compound was dissolved in a non-phytotoxic solvent and applied preemergence and/or postemergence to the plants. Preemergence applications were made within one day of planting the seeds or plant parts. Postemergence applications were applied when the plants were in the two to four leaf stage (three to twenty cm). Test chemicals were dissolved in a non-phytotoxic solvent and applied preemergence and postemergence to the plants. Untreated control plants and treated plants were placed in the greenhouse and visually evaluated for injury at 13 to 21 days after herbicide application. […] A dash (-) response indicates no test result.

velvetleaf = assay: Test B preemergence/postemergence greenhouse plant response rating 0 to 10; format: in vivo, Abutilon theophrasti; conditions: 0 to 10 scale
Procedure, shortened: as §1

alfalfa = assay: Test G preemergence/postemergence greenhouse plant response rating 0 to 100; format: in vivo, Medicago ativa; conditions: 0 to 100 scale
Source text: as §2

giant foxtail = assay: Test B preemergence/postemergence greenhouse plant response rating 0 to 10; format: in vivo, Setaria faberii; conditions: 0 to 10 scale
Procedure, shortened: as §1

barnyardgrass = assay: as above; format: in vivo, Echinochloa crus-galli; conditions: for Plant response rating, Barnyardgrass: 0 to 10 scale
Procedure, shortened: as §1

sugar beet = assay: as above; format: in vivo, Beta vulgaris; conditions: 0 to 10 scale
Procedure, shortened: as §1

Row | SMILES | Plant response rating, Lambsquarter (lambsquarters; POSTEMERGENCE, Rate 50 g/ha) | Plant response rating, Lambsquarter (lambsquarters; POSTEMERGENCE, Rate 200 g/ha) | Plant response rating, Lambsquarter (lambsquarters; PREEMERGENCE, Rate 50 g/ha) | Plant response rating, Lambsquarter (lambsquarters; Rate 200 g/ha, PREEMERGENCE) | Plant response rating, Purple Nutsedge (purple nutsedge; POSTEMERGENCE) | Plant response rating, Purple Nutsedge (purple nutsedge; PREEMERGENCE) | Plant response rating, Velvetleaf (velvetleaf; POSTEMERGENCE, Rate 50 g/ha) | Plant response rating, Velvetleaf (velvetleaf; POSTEMERGENCE, Rate 200 g/ha) | Plant response rating, Velvetleaf (velvetleaf; PREEMERGENCE, Rate 50 g/ha) | Plant response rating, Velvetleaf (velvetleaf; Rate 200 g/ha, PREEMERGENCE) | Plant response rating, Alfalfa Var. (alfalfa; POSTEMERGENCE, Rate 125 g/ha) | Plant response rating, Alfalfa Var. (alfalfa; POSTEMERGENCE, Rate 250 g/ha) | Plant response rating, Alfalfa Var. (alfalfa; PREEMERGENCE, Rate 125 g/ha) | Plant response rating, Alfalfa Var. (alfalfa; PREEMERGENCE, Rate 250 g/ha) | Plant response rating, Giant foxtail (giant foxtail; POSTEMERGENCE, Rate 50 g/ha) | Plant response rating, Giant foxtail (giant foxtail; POSTEMERGENCE, Rate 200 g/ha) | Plant response rating, Giant foxtail (giant foxtail; PREEMERGENCE, Rate 50 g/ha) | Plant response rating, Giant foxtail (giant foxtail; Rate 200 g/ha, PREEMERGENCE) | Plant response rating (0 to 10 scale), Barnyardgrass (barnyardgrass; POSTEMERGENCE, Rate 50 g/ha) | Plant response rating, Barnyardgrass (barnyardgrass; POSTEMERGENCE, Rate 200 g/ha) | further results
1 | CCCOc1cc(-c2nn3c(c2Cl)CCCC3)c(F)cc1Cl [Compound 23] | 10 | 10 | 10 | 10 | 0 | 0 | 9 | 10 | 1 | 10 | 0 | 0 | 0 | 0 | 5 | 7 | 6 | 9 | 7 | 9 | Plant response rating, Barnyardgrass (barnyardgrass; PREEMERGENCE, Rate 50 g/ha): 4; Plant response rating, Barnyardgrass (barnyardgrass; Rate 200 g/ha, PREEMERGENCE): 6; Plant response rating, Sugar beet (sugar beet; POSTEMERGENCE, Rate 50 g/ha): 10; Plant response rating, Sugar beet (sugar beet; POSTEMERGENCE, Rate 200 g/ha): 10; Plant response rating, Sugar beet (sugar beet; PREEMERGENCE, Rate 50 g/ha): 9; Plant response rating, Sugar beet (sugar beet; Rate 200 g/ha, PREEMERGENCE): 10
2 | CCS(=O)(=O)Oc1cc(-c2nn3c(c2Cl)CCCC3)c(F)cc1Cl [Compound 25] | 9 | 10 | 9 | 10 | 0 | 0 | 8 | 10 | 1 | 10 | 0 | 0 | 0 | 0 | 3 | 4 | 2 | 7 | 3 | 5 | Plant response rating, Barnyardgrass (barnyardgrass; PREEMERGENCE, Rate 50 g/ha): 2; Plant response rating, Barnyardgrass (barnyardgrass; Rate 200 g/ha, PREEMERGENCE): 6; Plant response rating, Sugar beet (sugar beet; POSTEMERGENCE, Rate 50 g/ha): 10; Plant response rating, Sugar beet (sugar beet; POSTEMERGENCE, Rate 200 g/ha): 10; Plant response rating, Sugar beet (sugar beet; PREEMERGENCE, Rate 50 g/ha): 7; Plant response rating, Sugar beet (sugar beet; Rate 200 g/ha, PREEMERGENCE): 10
3 | CC(C)Oc1cc(-c2nn3c(c2Cl)CCCC3)c(F)cc1Cl [Compound 21] | 10 | 10 | 10 | 10 | 0 | 0 | 10 | 9 | 1 | 10 | 0 | 0 | 0 | 0 | 4 | 7 | 5 | 9 | 6 | 9 | Plant response rating, Barnyardgrass (barnyardgrass; PREEMERGENCE, Rate 50 g/ha): 2; Plant response rating, Barnyardgrass (barnyardgrass; Rate 200 g/ha, PREEMERGENCE): 7; Plant response rating, Sugar beet (sugar beet; POSTEMERGENCE, Rate 50 g/ha): 10; Plant response rating, Sugar beet (sugar beet; POSTEMERGENCE, Rate 200 g/ha): 10; Plant response rating, Sugar beet (sugar beet; PREEMERGENCE, Rate 50 g/ha): 10; Plant response rating, Sugar beet (sugar beet; Rate 200 g/ha, PREEMERGENCE): 9
